Data: ChEMBL document CHEMBL4507274 (2021)

How the values were obtained:
[1] = molecular target: Platelet-derived growth factor receptor alpha (Homo sapiens) (UniProt P16234); settings: Compound concentration 100.0 nM
[2] = molecular target: Homeodomain-interacting protein kinase 1 (Homo sapiens) (UniProt Q86Z02); settings: Compound concentration 100.0 nM
[3] = molecular target: Mitogen-activated protein kinase kinase kinase kinase 5 (Homo sapiens) (UniProt Q9Y4K4); settings: Compound concentration 100.0 nM
[4] = molecular target: Macrophage-stimulating protein receptor (Homo sapiens) (UniProt Q04912); settings: Compound concentration 100.0 nM
[5] = molecular target: Phosphatidylinositol 4-phosphate 3-kinase C2 domain-containing subunit beta (Homo sapiens) (UniProt O00750); settings: Compound concentration 100.0 nM
[6] = molecular target: Activin receptor type-1-like (Homo sapiens) (UniProt P37023); settings: Compound concentration 100.0 nM
[7] = molecular target: Dual specificity protein kinase CLK2 (Homo sapiens) (UniProt P49760); settings: Compound concentration 100.0 nM
Sequence of Dual specificity protein kinase CLK2 (Homo sapiens) (P49760 whole entry, looked up): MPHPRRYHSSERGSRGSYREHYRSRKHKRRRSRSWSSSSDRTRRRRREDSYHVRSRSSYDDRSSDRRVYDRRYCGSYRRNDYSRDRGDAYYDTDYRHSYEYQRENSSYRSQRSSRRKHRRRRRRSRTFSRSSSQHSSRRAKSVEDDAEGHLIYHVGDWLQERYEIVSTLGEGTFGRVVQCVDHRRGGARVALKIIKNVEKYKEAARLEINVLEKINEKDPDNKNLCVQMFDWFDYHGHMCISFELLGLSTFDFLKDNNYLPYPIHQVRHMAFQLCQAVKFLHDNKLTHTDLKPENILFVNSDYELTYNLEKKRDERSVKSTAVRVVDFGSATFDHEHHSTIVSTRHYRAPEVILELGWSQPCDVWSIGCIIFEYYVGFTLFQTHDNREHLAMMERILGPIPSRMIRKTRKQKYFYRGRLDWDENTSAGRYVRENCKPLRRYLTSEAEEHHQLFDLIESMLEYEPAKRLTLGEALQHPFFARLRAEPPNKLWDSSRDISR

[8] = test system: Tyrosine-protein kinase ABL1 (Homo sapiens), P00519 [F317L]; settings: Compound concentration 100.0 nM
[9] = molecular target: Serine/threonine-protein kinase MARK2 (Homo sapiens) (UniProt Q7KZI7); settings: Compound concentration 100.0 nM
[10] = molecular target: Serine/threonine-protein kinase PknB (Mycobacterium tuberculosis) (UniProt P9WI81); settings: Compound concentration 100.0 nM
[11] = molecular target: Tyrosine-protein kinase Fyn (Homo sapiens) (UniProt P06241); settings: Compound concentration 100.0 nM
[12] = molecular target: Mitogen-activated protein kinase kinase kinase kinase 2 (Homo sapiens) (UniProt Q12851); settings: Compound concentration 100.0 nM
[13] = molecular target: Serine/threonine-protein kinase VRK2 (Homo sapiens) (UniProt Q86Y07); settings: Compound concentration 100.0 nM
[14] = molecular target: BDNF/NT-3 growth factors receptor (Homo sapiens) (UniProt Q16620); settings: Compound concentration 100.0 nM
Sequence of BDNF/NT-3 growth factors receptor (Homo sapiens) (Q16620 32-822 limits assumed): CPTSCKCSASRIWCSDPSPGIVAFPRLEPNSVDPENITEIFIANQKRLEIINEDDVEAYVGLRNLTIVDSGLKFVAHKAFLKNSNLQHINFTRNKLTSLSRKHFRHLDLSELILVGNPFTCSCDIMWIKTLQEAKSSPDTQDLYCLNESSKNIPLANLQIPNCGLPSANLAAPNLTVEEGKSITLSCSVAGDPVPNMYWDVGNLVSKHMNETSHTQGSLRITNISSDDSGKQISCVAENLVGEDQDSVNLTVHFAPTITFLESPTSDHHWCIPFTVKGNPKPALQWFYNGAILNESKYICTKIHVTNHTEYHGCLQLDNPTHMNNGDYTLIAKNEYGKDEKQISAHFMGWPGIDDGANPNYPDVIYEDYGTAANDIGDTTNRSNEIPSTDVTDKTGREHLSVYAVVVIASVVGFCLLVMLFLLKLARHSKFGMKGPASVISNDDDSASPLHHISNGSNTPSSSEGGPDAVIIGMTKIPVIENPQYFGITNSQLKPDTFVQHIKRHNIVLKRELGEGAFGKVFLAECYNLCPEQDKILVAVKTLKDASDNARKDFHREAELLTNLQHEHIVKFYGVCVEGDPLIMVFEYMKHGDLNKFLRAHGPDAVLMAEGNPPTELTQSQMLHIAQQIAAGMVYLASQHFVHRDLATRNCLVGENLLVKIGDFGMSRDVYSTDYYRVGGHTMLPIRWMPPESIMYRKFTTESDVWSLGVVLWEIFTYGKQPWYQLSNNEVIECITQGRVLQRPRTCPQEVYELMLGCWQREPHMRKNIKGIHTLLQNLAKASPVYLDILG

[15] = molecular target: Tyrosine-protein kinase TXK (Homo sapiens) (UniProt P42681); settings: Compound concentration 100.0 nM
[16] = molecular target: 5-hydroxytryptamine receptor 5A (Homo sapiens) (UniProt P47898); settings: Compound concentration 10.0 uM
[17] = molecular target: Mu-type opioid receptor (Homo sapiens) (UniProt P35372); settings: Compound concentration 10.0 uM
[18] = molecular target: MAP/microtubule affinity-regulating kinase 4 (Homo sapiens) (UniProt Q96L34); settings: Compound concentration 100.0 nM
[19] = molecular target: cGMP-dependent protein kinase 1 (Homo sapiens) (UniProt Q13976); settings: Compound concentration 100.0 nM
Sequence of cGMP-dependent protein kinase 1 (Homo sapiens) (Q13976 whole entry): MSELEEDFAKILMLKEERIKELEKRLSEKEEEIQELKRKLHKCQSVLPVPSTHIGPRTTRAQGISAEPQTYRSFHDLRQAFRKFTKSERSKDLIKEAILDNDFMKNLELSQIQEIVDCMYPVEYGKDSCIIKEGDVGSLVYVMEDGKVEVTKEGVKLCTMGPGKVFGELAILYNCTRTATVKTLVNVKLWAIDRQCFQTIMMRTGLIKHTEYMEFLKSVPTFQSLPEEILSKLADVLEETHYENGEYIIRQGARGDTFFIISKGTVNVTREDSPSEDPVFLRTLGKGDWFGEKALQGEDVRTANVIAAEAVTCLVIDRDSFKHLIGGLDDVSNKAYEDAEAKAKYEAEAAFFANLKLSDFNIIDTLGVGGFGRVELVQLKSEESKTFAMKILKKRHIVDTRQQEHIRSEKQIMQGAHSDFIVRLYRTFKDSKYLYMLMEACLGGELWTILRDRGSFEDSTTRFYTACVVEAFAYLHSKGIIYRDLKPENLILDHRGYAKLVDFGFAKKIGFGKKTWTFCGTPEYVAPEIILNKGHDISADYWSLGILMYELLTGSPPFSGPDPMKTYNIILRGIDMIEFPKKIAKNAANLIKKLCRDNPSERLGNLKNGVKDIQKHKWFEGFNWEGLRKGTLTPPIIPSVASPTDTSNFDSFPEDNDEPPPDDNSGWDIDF

[20] = molecular target: Activin receptor type-2A (Homo sapiens) (UniProt P27037); settings: Compound concentration 100.0 nM
[21] = test system: Receptor-type tyrosine-protein kinase FLT3 (Homo sapiens), P36888 [D835V]; settings: Compound concentration 100.0 nM
[22] = molecular target: Mitogen-activated protein kinase kinase kinase 10 (Homo sapiens) (UniProt Q02779); settings: Compound concentration 100.0 nM
Sequence of Mitogen-activated protein kinase kinase kinase 10 (Homo sapiens) (Q02779 whole entry, looked up): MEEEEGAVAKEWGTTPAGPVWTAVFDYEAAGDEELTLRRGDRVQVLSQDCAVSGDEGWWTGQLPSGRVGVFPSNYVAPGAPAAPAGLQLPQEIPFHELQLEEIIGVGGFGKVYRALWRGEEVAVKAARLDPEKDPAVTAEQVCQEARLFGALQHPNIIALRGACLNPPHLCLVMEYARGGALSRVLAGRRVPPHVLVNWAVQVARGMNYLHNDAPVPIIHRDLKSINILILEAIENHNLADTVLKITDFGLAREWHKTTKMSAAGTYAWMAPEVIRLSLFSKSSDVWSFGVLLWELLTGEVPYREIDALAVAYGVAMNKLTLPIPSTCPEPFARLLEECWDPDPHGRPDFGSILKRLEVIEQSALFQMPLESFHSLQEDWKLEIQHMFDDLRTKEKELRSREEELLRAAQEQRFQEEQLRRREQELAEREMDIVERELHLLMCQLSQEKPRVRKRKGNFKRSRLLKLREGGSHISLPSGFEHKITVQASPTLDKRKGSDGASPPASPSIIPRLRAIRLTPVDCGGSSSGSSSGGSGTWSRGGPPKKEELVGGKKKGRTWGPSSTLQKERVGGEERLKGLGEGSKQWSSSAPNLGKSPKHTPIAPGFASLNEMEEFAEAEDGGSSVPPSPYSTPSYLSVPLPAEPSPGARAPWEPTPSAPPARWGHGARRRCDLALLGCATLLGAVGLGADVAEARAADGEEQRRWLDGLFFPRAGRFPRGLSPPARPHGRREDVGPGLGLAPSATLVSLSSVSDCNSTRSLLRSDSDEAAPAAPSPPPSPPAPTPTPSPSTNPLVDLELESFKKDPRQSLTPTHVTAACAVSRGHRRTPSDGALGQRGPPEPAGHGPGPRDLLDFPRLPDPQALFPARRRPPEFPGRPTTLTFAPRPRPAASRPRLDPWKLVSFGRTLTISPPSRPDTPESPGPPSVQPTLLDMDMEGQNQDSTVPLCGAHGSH

[23] = molecular target: Atypical kinase COQ8B, mitochondrial (Homo sapiens) (UniProt Q96D53); settings: Compound concentration 100.0 nM
[24] = molecular target: Tyrosine-protein kinase JAK2 (Homo sapiens) (UniProt O60674); settings: Compound concentration 100.0 nM
[25] = molecular target: Serine/threonine-protein kinase 32A (Homo sapiens) (UniProt Q8WU08); settings: Compound concentration 100.0 nM
[26] = molecular target: Tyrosine-protein kinase ITK/TSK (Homo sapiens) (UniProt Q08881); settings: Compound concentration 100.0 nM
[27] = molecular target: Serine/threonine-protein kinase pim-2 (Homo sapiens) (UniProt Q9P1W9); settings: Compound concentration 100.0 nM
[28] = molecular target: Serine/threonine-protein kinase pim-1 (Homo sapiens) (UniProt P11309); settings: Compound concentration 100.0 nM
Sequence of Serine/threonine-protein kinase pim-1 (Homo sapiens) (P11309 whole entry, looked up): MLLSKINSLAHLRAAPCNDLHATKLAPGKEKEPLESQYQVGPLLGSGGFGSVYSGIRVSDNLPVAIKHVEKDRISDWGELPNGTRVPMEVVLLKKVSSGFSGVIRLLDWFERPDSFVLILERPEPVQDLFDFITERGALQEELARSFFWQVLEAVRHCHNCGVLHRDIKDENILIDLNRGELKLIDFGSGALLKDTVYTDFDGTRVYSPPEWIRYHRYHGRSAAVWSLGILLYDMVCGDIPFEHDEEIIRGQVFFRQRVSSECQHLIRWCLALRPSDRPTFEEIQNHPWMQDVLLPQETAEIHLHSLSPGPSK

[29] = molecular target: Mitogen-activated protein kinase 3 (Homo sapiens) (UniProt P27361); settings: Compound concentration 100.0 nM
[30] = molecular target: Serine/threonine-protein kinase LATS1 (Homo sapiens) (UniProt O95835); settings: Compound concentration 100.0 nM
[31] = molecular target: Mitogen-activated protein kinase 4 (Homo sapiens) (UniProt P31152); settings: Compound concentration 100.0 nM
[32] = molecular target: Phosphatidylinositol 4-phosphate 5-kinase type-1 gamma (Homo sapiens) (UniProt O60331); settings: Compound concentration 100.0 nM
[33] = molecular target: Mitogen-activated protein kinase kinase kinase 11 (Homo sapiens) (UniProt Q16584); settings: Compound concentration 100.0 nM
[34] = molecular target: Serine/threonine-protein kinase PRP4 homolog (Homo sapiens) (UniProt Q13523); settings: Compound concentration 100.0 nM
[35] = molecular target: Calcium/calmodulin-dependent protein kinase type 1G (Homo sapiens) (UniProt Q96NX5); settings: Compound concentration 100.0 nM
[36] = molecular target: D(1B) dopamine receptor (Homo sapiens) (UniProt P21918); settings: Compound concentration 10.0 uM
[37] = molecular target: Mitogen-activated protein kinase 11 (Homo sapiens) (UniProt Q15759); settings: Compound concentration 100.0 nM
[38] = molecular target: Ephrin type-A receptor 7 (Homo sapiens) (UniProt Q15375); settings: Compound concentration 100.0 nM
[39] = molecular target: Rho-associated protein kinase 1 (Homo sapiens) (UniProt Q13464); settings: Compound concentration 100.0 nM
[40] = molecular target: Dual specificity protein kinase CLK3 (Homo sapiens) (UniProt P49761); settings: Compound concentration 100.0 nM
[41] = test system: Phosphatidylinositol 4,5-bisphosphate 3-kinase catalytic subunit alpha isoform (Homo sapiens), P42336 [H1047Y]; settings: Compound concentration 100.0 nM
[42] = molecular target: Tyrosine-protein kinase JAK1 (Homo sapiens) (UniProt P23458); settings: Compound concentration 100.0 nM
Sequence of Tyrosine-protein kinase JAK1 (Homo sapiens) (P23458 whole entry): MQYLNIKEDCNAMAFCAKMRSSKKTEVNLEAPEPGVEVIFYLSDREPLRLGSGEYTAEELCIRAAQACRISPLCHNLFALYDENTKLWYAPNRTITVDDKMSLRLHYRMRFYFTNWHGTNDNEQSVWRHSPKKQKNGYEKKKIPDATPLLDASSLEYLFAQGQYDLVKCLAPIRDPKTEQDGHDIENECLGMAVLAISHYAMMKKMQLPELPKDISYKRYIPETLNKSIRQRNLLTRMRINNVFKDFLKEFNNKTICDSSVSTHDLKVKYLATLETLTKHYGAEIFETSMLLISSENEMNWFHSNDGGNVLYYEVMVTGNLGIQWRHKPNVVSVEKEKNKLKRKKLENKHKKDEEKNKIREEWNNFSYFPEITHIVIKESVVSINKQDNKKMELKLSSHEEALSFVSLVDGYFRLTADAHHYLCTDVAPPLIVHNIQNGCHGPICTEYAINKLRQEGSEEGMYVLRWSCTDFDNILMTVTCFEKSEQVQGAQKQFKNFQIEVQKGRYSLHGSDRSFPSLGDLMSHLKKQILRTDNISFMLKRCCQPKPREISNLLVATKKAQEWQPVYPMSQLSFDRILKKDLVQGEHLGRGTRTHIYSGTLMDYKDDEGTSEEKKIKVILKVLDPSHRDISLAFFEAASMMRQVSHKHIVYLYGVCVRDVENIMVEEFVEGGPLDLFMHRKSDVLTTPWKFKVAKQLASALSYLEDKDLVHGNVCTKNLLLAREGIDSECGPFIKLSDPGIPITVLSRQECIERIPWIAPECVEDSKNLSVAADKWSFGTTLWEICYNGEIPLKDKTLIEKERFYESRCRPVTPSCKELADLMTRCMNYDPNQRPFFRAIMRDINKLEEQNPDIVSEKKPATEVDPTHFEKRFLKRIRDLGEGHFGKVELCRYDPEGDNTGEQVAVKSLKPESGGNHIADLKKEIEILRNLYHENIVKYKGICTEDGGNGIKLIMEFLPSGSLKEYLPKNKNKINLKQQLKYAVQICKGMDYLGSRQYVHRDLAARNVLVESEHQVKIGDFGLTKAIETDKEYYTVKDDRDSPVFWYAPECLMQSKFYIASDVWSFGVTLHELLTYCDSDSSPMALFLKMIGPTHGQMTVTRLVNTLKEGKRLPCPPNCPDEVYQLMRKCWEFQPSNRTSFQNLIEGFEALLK

[43] = molecular target: Rhodopsin kinase GRK1 (Homo sapiens) (UniProt Q15835); settings: Compound concentration 100.0 nM
Sequence of Rhodopsin kinase GRK1 (Homo sapiens) (Q15835 whole entry): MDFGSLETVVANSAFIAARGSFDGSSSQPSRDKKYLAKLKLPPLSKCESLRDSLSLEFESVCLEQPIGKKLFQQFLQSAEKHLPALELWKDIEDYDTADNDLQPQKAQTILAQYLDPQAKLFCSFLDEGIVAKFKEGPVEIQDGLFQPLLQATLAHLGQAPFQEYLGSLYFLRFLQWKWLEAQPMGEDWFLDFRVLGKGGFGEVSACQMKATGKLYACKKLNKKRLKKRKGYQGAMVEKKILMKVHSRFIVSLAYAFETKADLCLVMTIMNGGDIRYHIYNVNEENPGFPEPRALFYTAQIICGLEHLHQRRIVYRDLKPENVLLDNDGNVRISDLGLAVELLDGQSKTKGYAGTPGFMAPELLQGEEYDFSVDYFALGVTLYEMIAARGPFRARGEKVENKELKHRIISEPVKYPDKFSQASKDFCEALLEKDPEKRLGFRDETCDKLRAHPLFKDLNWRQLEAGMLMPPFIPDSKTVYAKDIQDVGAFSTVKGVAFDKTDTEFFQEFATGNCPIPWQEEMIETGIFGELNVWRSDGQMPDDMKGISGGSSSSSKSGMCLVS

[44] = molecular target: Ribosomal protein S6 kinase alpha-2 (Homo sapiens) (UniProt Q15349); settings: Compound concentration 100.0 nM
[45] = molecular target: Mitogen-activated protein kinase kinase kinase 14 (Homo sapiens) (UniProt Q99558); settings: Compound concentration 100.0 nM

## Cc1c[nH]c2nccc(Oc3c(F)cc(Nc4cc(Cl)nc(N)n4)cc3F)c12 [BAY-549]
[1]
  residual activity: 84%
[2]
  residual activity: 100%
[3]
  residual activity: 93%
[4]
  residual activity: 74%
[5]
  residual activity: 88%
[6]
  residual activity: 100%
[7]
  residual activity: 86%
[8]
  residual activity: 74%
[9]
  residual activity: 100%
[10]
  residual activity: 98%
[11]
  residual activity: 100%
[12]
  residual activity: 69%
[13]
  residual activity: 76%
[14]
  residual activity: 94%
[15]
  residual activity: 100%
[16]
  inhibition: -9.86%
[17]
  inhibition: -0.03%
[18]
  residual activity: 100%
[19]
  residual activity: 49%
[20]
  residual activity: 94%
[21]
  residual activity: 90%
[22]
  residual activity: 100%
[23]
  residual activity: 88%
[24]
  residual activity: 75%
[25]
  residual activity: 86%
[26]
  residual activity: 81%
[27]
  residual activity: 100%
[28]
  residual activity: 100%
[29]
  residual activity: 90%
[30]
  residual activity: 42%
[31]
  residual activity: 81%
[32]
  residual activity: 78%
[33]
  residual activity: 100%
[34]
  residual activity: 89%
[35]
  residual activity: 97%
[36]
  inhibition: 21.9%
[37]
  residual activity: 97%
[38]
  residual activity: 82%
[39]
  residual activity: 0.6%
[40]
  residual activity: 91%
[41]
  residual activity: 83%
[42]
  residual activity: 84%
[43]
  residual activity: 82%
[44]
  residual activity: 82%
[45]
  residual activity: 92%

## Cn1cc(Cl)c2c(Oc3c(F)cc(Nc4cc(Cl)nc(N)n4)cc3F)ccnc21 [BAY-4900]
[1]
  residual activity: 98%
[2]
  residual activity: 100%
[3]
  residual activity: 91%
[4]
  residual activity: 87%
[5]
  residual activity: 83%
[6]
  residual activity: 93%
[7]
  residual activity: 87%
[8]
  residual activity: 74%
[9]
  residual activity: 100%
[10]
  residual activity: 100%
[11]
  residual activity: 80%
[12]
  residual activity: 81%
[13]
  residual activity: 81%
[14]
  residual activity: 96%
[15]
  residual activity: 100%
[16]
  inhibition: 0.35%
[17]
  inhibition: -9.98%
[18]
  residual activity: 100%
[19]
  residual activity: 83%
[20]
  residual activity: 87%
[21]
  residual activity: 91%
[22]
  residual activity: 100%
[23]
  residual activity: 89%
[24]
  residual activity: 72%
[25]
  residual activity: 89%
[26]
  residual activity: 97%
[27]
  residual activity: 88%
[28]
  residual activity: 100%
[29]
  residual activity: 98%
[30]
  residual activity: 69%
[31]
  residual activity: 100%
[32]
  residual activity: 93%
[33]
  residual activity: 100%
[34]
  residual activity: 81%
[35]
  residual activity: 100%
[36]
  inhibition: 9.8%
[37]
  residual activity: 100%
[38]
  residual activity: 96%
[39]
  residual activity: 76%
[40]
  residual activity: 91%
[41]
  residual activity: 62%
[42]
  residual activity: 83%
[43]
  residual activity: 92%
[44]
  residual activity: 95%
[45]
  residual activity: 100%
